# In US20080300298A1, “Honokiol Derivates For the Treatment of Proliferative Disorders” (priority 2005, published 2008):
# Tested on: MM.1S cells
# Assay: combination with bortezomib
# Type: cell-based, human
# Description: Assessment of HNK-induced cytotoxicity against patient MM cells: Cytotoxicity of HNK against fresh MM cells was determined as previously determined, see, for example, Mitsiades et al Cancer Cell. 2004; 5:221-230. Fresh MNCs separated from bone marrow samples derived from patients with MM were incubated with PE-conjugated anti-CD138 antibody and/or FITC-conjugated anti-CD38 antibody (BD Biosciences, San Diego, Calif.) for 30 minutes on ice and washed, followed by analysis using EPICS XL flow cytometer (Beckman Coulter, Hialeah, Fla.). A CD38^high fraction enriched for MM cells was determined in side and forward scatter panel in each case. The expression of CD138 on gated cells was also evaluated. After HNK-treatment for 48 h, cells were harvested and percentage of CD38^high cells with or without HNK-treatment was evaluated. […] Cells were stained with propidium iodide (PI; 50 μg/mL; Sigma, St Louis, Mo.), and cell cycle profile was determined by using the program M software on an EPICS XL flow cytometer (Beckman Coulter, Hialeah, Fla.). […] Fluorescence intensity of TUNEL and APO 2.7 staining was determined using on EPICS XL flow cytometer. Cytotoxicity was determined by trypan blue exclusion assay. […] Cell growth and induction of apoptosis were determined both by colorimetric assay and now cytometric detection of APO2.7 after 48 h treatment. […] DNA synthesis was measured by [^3H]-thymidine uptake. […]
smiles,measurement,setting,value
"C=CCc1ccc(O)c(-c2ccc(O)c(CC=C)c2)c1 [HNK, Honokiol]","Bortezomib-induced up-regulation of Hsp27, p-Hsp27 and Hsp70","8 h, Western blotting",significantly blocked
same,cytotoxicity and apoptosis of combined treatment with bortezomib,"HNK and bortezomib, 48 h",enhanced the cytotoxicity and induction of apoptosis compared to each drug alone
